Tests used:
[1] = test system: yeast glycogen synthase (YGS); experiment: Activity assay of the yeast glycogen synthase (YGS) overexpressed in Pichia; type: biochemical; details: 6.7 mM UDP glucosamine, 1 mM maltoheptose, 30° C., 1 hour; preliminary results
Experimental: 6. Activity Assay of the Yeast Glycogen Synthase (YGS)
The last reaction: synthesis of cationic starch by the yeast glycogen synthase overexpressed in Pichia using UDPgluosamine and glucosyl oligosaccharide primers: […]
UDP glucosamine+starch→starch periodically interspersed with 2 amino anhydroglucose
The YGS produced from secreted expression in Pichia was isolated from the growth medium, desalted into a buffer containing 50 mM Tris-HCl and 5 mM EDTA, pH 7.8, and concentrated using Centricon-30 concentrator. The preparation was used for assaying the activity of YGS.
50 mM Tris-HCl and 5 mM EDTA, pH 7.8
6.7 mM UDP glucose or UDP glucosamine
6.7 mM glucose-6-phosphate
1 mM maltoheptose ([…], from Sigma)
Protein prep: 150 μg/300-μl reaction
Incubated at 30° C. for 1 hour.
Analyze by HPLC using Dionex's CarboPac-PA1 column with a pulsed amperometry detector (to detect the formation of elongated glusyl oligo primers);

Baker yeast UGPase = target: T1, Baker yeast UGPase (Saccharomyces cerevisiae, UniProt P32861); experiment: Activity assay of UDPglucose pyrophosphorylase (UGPase), Baker yeast enzyme; type: biochemical, Bakers yeast; details: 2 mM substrate, 1 mM UTP, 30° C., 30 minutes, HPLC
T1 construct: UDP-glucose pyrophorylases purified from Bakers yeast (U 8501); purchased Sigma U 8501; host or cells: Bakers yeast
T1 sequence (P32861 1-499): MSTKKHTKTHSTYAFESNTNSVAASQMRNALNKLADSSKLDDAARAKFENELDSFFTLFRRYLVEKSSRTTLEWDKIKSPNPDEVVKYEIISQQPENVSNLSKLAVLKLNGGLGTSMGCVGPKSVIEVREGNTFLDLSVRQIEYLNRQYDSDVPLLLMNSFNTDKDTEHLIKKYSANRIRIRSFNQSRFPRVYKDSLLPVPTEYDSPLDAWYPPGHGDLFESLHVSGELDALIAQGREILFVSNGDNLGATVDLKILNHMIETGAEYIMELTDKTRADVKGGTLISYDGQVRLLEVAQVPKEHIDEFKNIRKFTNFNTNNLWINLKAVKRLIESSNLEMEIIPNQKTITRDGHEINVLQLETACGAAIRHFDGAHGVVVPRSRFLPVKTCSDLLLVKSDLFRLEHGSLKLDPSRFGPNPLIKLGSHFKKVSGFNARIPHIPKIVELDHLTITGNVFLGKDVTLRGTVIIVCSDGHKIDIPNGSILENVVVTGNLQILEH
Experimental: (§1) 4. Activity Assay of UDPglucose Pyrophosporylase (UGPase) [drawing 1]
(§2) The above reaction is evaluated with an alternative substrate, glucosamine-1-phosphate.
(§3) Enzymes: UDP-glucose pyrophorylases purified from Bakers yeast (U 8501) & bovine liver (U 5877) by Sigma;
(§4) UGPase assay was conducted per protocals used by Sigma;
50 mM Tris-HCl, pH 7.6; 16 mM MgCl2; 10 mM L-cystein, 1 mM UTP; inorganic pyrophosphorylase; 2 mM glucose-1-P or glucosamine-1-P;
(§5) Carried out the reactions at 30° C. for 30 minutes;
(§6) Boiled for 5 min and passed through Centrion-10;

Phosphoglucomutase (PGM) = experiment: Activity assay of phosphoglucomutase (PGM), maize endosperm protein extract; type: biochemical; details: extract from immature seeds, 20 days after pollination, HPLC
Experimental: (§7) 3. Activity Assay of Phosphoglucomutase (PGM)
(§8) glucosamine-6-phosphate→glucosamine-1-phosphate
(§9) 80 mM triethanolamine, pH 7.6
(§10) 20 μM glucosae-1,6-bisphosphate
(§11) 2 mM glucosamine-1-phosphate or glucosamine-6-phosphate
Maize endosperm protein extract (200-μg total protein per 1.0 ml reaction)
Ground kernels in ice-cold homogenization buffer (50 mM KH2PO4, pH 7.0; 5 mM EDTA; and 1 mM
DTT). Kernels were dissected from an ear (HN18) harvested 20 days after pollination.
Filtered the homogenate through 4-layer cheesecloth, and centrifuged at 25,000×g for 20 min at 4° C.
Desalted the supernatant into the homogenization buffer using a fast FPLC desalting column and collected the flow through.
Added PMSF and chymostatin to a final concentration of 1 mM and used the flow-through as crude PGM prep for the assay.
(§12) Incubated at 30° C. for 15 min.
(§13) * Transferred to a Centricon-30 concentrator and centrifuged at 1,400× for 20 min.
(§14) Removed 100 μl of the filtrate and added 400-μl water.
(§15) Injected 50 μl onto Dionex's CarboPac PA1 column and detected with a pulsed amperometry detector.
(§16) Eluted with 100 mM NaOH and 100 mM NaOH/1M sodium acetate (to detect formation of glucosamine-6-phosphate or glucosamine-1-phosphate): […]

PGM from rabbit muscle = target: T2, PGM from rabbit muscle (Oryctolagus cuniculus, UniProt P00949); experiment: Activity assay of phosphoglucomutase (PGM), commercial rabbit muscle PGM; type: biochemical; details: HPLC; for conversion of substrate by rabbit muscle PGM (glucosamine-1-phosphate to glucosamine-6-phosphate or reverse): 2 mM substrate, 30° C., 15 min, at completion/end of reaction
T2 construct: Commercial PGM from rabbit muscle; purchased Boehringer Mannheim 108375; host or cells: rabbit muscle
T2 sequence (P00949 1-562): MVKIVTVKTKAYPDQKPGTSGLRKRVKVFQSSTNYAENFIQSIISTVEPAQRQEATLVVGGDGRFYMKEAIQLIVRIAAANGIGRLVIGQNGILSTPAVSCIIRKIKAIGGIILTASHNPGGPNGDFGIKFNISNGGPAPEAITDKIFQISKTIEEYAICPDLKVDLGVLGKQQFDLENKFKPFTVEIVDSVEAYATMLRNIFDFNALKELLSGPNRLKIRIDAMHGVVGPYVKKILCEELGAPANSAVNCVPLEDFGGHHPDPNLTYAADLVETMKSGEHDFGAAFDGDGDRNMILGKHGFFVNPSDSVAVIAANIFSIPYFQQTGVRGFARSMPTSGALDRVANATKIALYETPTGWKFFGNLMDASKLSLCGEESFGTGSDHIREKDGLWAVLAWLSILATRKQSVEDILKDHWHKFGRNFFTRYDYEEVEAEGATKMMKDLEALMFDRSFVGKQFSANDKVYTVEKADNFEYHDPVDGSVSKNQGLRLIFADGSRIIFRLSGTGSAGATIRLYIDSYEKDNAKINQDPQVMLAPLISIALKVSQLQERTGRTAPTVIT
Experimental: as §7, §8, §9, §10, §11
Commercial PGM from rabbit muscle (Boehringer Mannheim, Catalog No. 108375)
as §12, §13, §14, §15, §16

bovine liver UGPase = target: T3, bovine liver UGPase (Bos taurus, UniProt Q07130); experiment: Activity assay of UDPglucose pyrophosphorylase (UGPase), bovine liver enzyme; type: biochemical; details: 2 mM substrate, 1 mM UTP, 30° C., 30 minutes, HPLC
T3 construct: purchased Sigma U 5877; host or cells: bovine liver
T3 sequence (Q07130 1-508): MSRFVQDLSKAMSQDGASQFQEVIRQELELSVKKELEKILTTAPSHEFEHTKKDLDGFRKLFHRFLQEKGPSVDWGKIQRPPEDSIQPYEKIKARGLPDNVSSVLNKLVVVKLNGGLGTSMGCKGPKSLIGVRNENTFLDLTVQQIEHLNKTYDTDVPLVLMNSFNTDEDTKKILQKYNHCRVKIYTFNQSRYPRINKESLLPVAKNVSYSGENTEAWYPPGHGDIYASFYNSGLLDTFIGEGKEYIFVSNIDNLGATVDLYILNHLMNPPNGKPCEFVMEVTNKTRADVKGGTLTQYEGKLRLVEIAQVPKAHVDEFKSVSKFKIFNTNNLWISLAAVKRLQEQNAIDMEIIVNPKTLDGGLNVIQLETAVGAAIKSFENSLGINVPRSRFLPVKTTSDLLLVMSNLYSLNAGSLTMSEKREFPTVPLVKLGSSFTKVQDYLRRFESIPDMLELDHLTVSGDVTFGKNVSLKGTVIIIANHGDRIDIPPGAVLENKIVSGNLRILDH
Experimental: as §1, §2, §3, §4
(§17) 48 mM Tris-HCl, pH 8.5; 19 mM MgCl2; 2.3 mM β-mercaptoethanol; 1 mM UTP; inorganic pyrophosphorylase; 2 mM glucose-1-P or glucosamine-1-P;
as §5, §6

UGPase = UGPase activity in the maize endosperm protein extract; type: biochemical; details: extract from seeds harvested 20 days after pollination
Experimental: For UGPase Activity in the Maize Endosperm
Weighted 8-g GS3 kernels (20 days after pollination);
Added 0.5-ml Boehringer's protease inhibitor cocktail (one tablet dissolved in 1-ml water);
Blended for 10 sec, 3×at 4° C.;
Filtered through three layers of Cheesecloth at 4° C.;
Passed two 100-μl aliquots through a BioRad's BioSpin-30 column using a swing bucked rotor in Jouan at 2100 rpm, at RT, & repeated (i.e. two Bio-Spin-30 columns used for each of the 2, 100-μl aliquots);
as §17, §5, §6

N[C@H]1[C@@H](OP(=O)(O)OP(=O)(O)OC[C@H]2O[C@@H](n3ccc(=O)[nH]c3=O)[C@H](O)[C@@H]2O)O[C@H](CO)[C@@H](O)[C@@H]1O [UDP glucosamine] was tested, and the “substrate recognition, transfer of glucosaminyl moiety to glucosyl oligo primers” value [1] was “recognize UDP glucosamine as a substrate”.
For N[C@H]1C(OP(=O)(O)O)O[C@H](CO)[C@@H](O)[C@@H]1O (stereo partly drawn) [glucosamine-1-phosphate], the “substrate recognition in formation of UDP glucosamine” value (Baker yeast UGPase) was “recognized glucosamine-1-P as a substrate”, the “use of substrate by PGM in maize endosperm extract (result in words)” value (Phosphoglucomutase (PGM)) was “Glucosamine-6-phosphate was detected” and the “conversion of substrate by rabbit muscle PGM (glucosamine-1-phosphate to glucosamine-6-phosphate or reverse)” value (PGM from rabbit muscle) was “about 60%”. The “substrate recognition in formation of UDP glucosamine” value (bovine liver UGPase) was “recognized glucosamine-1-P as a substrate” and the “activity in using substrate to form UDP glucosamine” value (UGPase) was “also found in maize endosperm protein extract”.
For N[C@H]1C(O)O[C@H](COP(=O)(O)O)[C@@H](O)[C@@H]1O (stereo partly drawn) [glucosamine-6-phosphate], the “conversion of substrate by rabbit muscle PGM (glucosamine-1-phosphate to glucosamine-6-phosphate or reverse)” value (PGM from rabbit muscle) was “about 70%”.
For O=P(O)(O)O[C@H]1O[C@H](CO)[C@@H](O)[C@H](O)[C@H]1O [glucose-1-phosphate], the “use of substrate by PGM in maize endosperm extract (result in words)” value (Phosphoglucomutase (PGM)) was “near complete conversion” and the “use of substrate by rabbit muscle PGM (result in words)” value (PGM from rabbit muscle; positive control, formation of glucose-6-phosphate) was “nearly depleted”.

From patent US20030177534A1, “Plant glutamine:fructose-6-phosphate amidotransferase nucleic acids” (Pioneer Hi-Bred International, Inc., priority 1998, published 2003)
